Patent EP0558321A1 (priority 1992, dated 1993)
Structures can show the parent of a compound that is named as a salt. Where two headings read alike, the source gives them in different places.

Columns and labels:
HSV-1 (Miyama strain) = experiment: microbe, parasite or virus in culture; type: cell-based, herpes simplex virus type 1
influenza virus [1] = details: prior art statement; clinical efficacy not yet verified; cited from earlier work
influenza B virus = details: prior art statement; cited from earlier work
influenza A virus = details: prior art statement; cited from earlier work
[2] = system: influenza virus (A/PR/8 strain); experiment: microbe, parasite or virus in culture; type: cell-based; details: unidentified influenza virus, PR/8, MDCK, read-out: Antiviral Activitiy (ΔTCID₅₀)(log₁₀)
influenza virus [3] = details: from "Acta Virol.", 28, pp. 501-507 (1984); cited from earlier work
herpes virus = details: from "J. Gen. Virol.", 67, pp. 1115-1122 (1986); cited from earlier work
[4] = Human alphaherpesvirus 1, GMK, read-out: Antiviral Activity (ΔTCID₅₀)(log₁₀), compound concentration 5 µg/ml, GMK cells
[5] = Human alphaherpesvirus 1, GMK, read-out: Antiviral Activity (ΔTCID₅₀)(log₁₀), compound concentration 10 µg/ml, GMK cells
[6] = compound concentration 10 µg/ml, GMK cells
[7] = compound concentration 50 µg/ml, GMK cells
[8] = Human alphaherpesvirus 1, GMK, read-out: Antiviral Activity (ΔTCID₅₀)(log₁₀), compound concentration 20 µg/ml, GMK cells
[9] = Human alphaherpesvirus 1, GMK, read-out: Antiviral Activity (ΔTCID₅₀)(log₁₀)

Compound	log reduction at 10 µg/mL (HSV-1 (Miyama strain); [5])	cytotoxicity (GMK cells)	log reduction at 5 µg/mL [2]	log reduction at 10 µg/mL [2]	other results
OC(c1ccc2ccccc2c1)(C1C2CC3CC(C2)CC1C3)C12CCCN1CCC2 (centres unmarked) [Prep. Ex. 9, 1-(1-azabicyclo[3.3.0]octan-5-yl)-1-(2-naphthyl)-1-(2-tricyclo [3.3.1.1^3.7]decyl)methan-1-ol]	2.17	2.17 (-)	–	–	log reduction at 5 µg/mL (HSV-1 (Miyama strain); [4]): 1.17
N#C[N-]c1nncs1.[Na+] [LY253963]	–	–	–	–	activity against influenza virus in animal tests (influenza virus [1]): resistant to influenza virus in animal tests
CC(N)C12CC3CC(CC(C3)C1)C2 (centres unmarked) [remantadine, Remantadine]	–	–	–	–	efficacy against influenza B virus (influenza B virus): not against influenza B virus; efficacy against influenza A virus (influenza A virus): efficacious against influenza A virus
(1R*)-1-(1-azabicyclo[3.3.0]octan-5-yl)-1-phenyl-1-((3'R*)-3-tricyclo[2.2.1.0]heptyl)methanol hydrochloride [Prep. Ex. 4]	–	–	–	–	Antiviral Activity (ΔTCID₅₀)(log₁₀) (HSV-1 (Miyama strain); [6]): 0.66 (-) log₁₀; Antiviral Activity (ΔTCID₅₀)(log₁₀) (HSV-1 (Miyama strain); [7]): 1.33 (±) log₁₀
CC(=O)c1ccc(C(O)(C2C3CC4CC(C3)CC2C4)C23CCCN2CCC3)cc1 (centres unmarked) [Prep. Ex. 32, 1-(4-acetylphenyl)-1-(1-azabicyclo[3.3.0]octan-5-yl)-1-(2-tricyclo[3.3.1.1³^.7]decyl)methan-1-ol hydrochloride]	0.33	0.33 (+)	0.5	1	log reduction at 20 µg/mL [2]: 1.16
COc1ccccc1C(O)(C1C2CC3CC(C2)CC1C3)C12CCCN1CCC2 (centres unmarked) [Prep. Ex. 23, 1-(1-azabicyclo[3.3.0]octan-5-yl)-1-(2-methoxyphenyl)-1-(2-tricyclo[3.3.1.1^3.7]decyl)methan-1-ol hydrochloride]	0.17	0.17 (+)	–	–	–
CN(C)c1ccc(C(O)(C2C3CC4CC(C3)CC2C4)C23CCCN2CCC3)cc1 (centres unmarked) [Prep. Ex. 13, 1-(1-azabicyclo[3.3.0]octan-5-yl)-1-(4-dimethylaminophenyl)-1-(2-tricyclo[3.3.1.1^3.7]decyl)methan-1-ol dihydrochloride]	0.77	–	–	0.17	log reduction at 20 µg/mL (HSV-1 (Miyama strain); [8]): 3; cytotoxicity (MDCK cells): 0.17 (+)
OC(c1ccc(F)cc1)(C1C2CC3CC(C2)CC1C3)C12CCCN1CCC2 (centres unmarked) [Prep. Ex. 11, 1-(1-azabicyclo[3.3.0]octan-5-yl)-1-(4-fluoropheyl)-1-(2-tricyclo [3.3.1.1^3.7]decyl)methan-1-ol hydrochloride]	–	–	–	–	Antiviral Activity (ΔTCID₅₀)(log₁₀) (HSV-1 (Miyama strain); compound concentration 5 µg/ml, GMK cells, hydrochloride): 0.00 (-) log₁₀
Cc1ccc(C(O)(C2C3CC4CC(C3)CC2C4)C23CCCN2CCC3)cc1 (centres unmarked) [Prep. Ex. 27, 1-(1-azabicyclo[3.3.0]octan-5-yl)-1-(4-methylphenyl)-1-(2-tricyclo-[3.3.1.1^3.7]decyl)methan-1-ol hydrochloride]	2.17	–	0.17	0.17	log reduction at 20 µg/mL (HSV-1 (Miyama strain); [8]): > 3; log reduction at 20 µg/mL [2]: 2.17
OC(CCN1CCCCC1)(c1ccccc1)C1C2CC3C(C2)C31 (stereo not drawn) [Prep. Ex. 1, (1R*)-1-phenyl-3-piperidino-1-((3'S*)-3-tricyclo[2.2.1.0]heptyl)propan-1-ol hydrochloride]	0.83	–	–	0.44	log reduction at 50 µg/mL (HSV-1 (Miyama strain); Human alphaherpesvirus 1, GMK, read-out: Antiviral Activity (ΔTCID₅₀)(log₁₀), compound concentration 50 µg/ml, GMK cells): > 3; log reduction at 20 µg/mL [2]: > 3.17
Cc1ccccc1C(O)(C1C2CC3CC(C2)CC1C3)C12CCCN1CCC2 (centres unmarked) [Prep. Ex. 25, 1-(1-azabicyclo[3.3.0]octan-5-yl)-1-(2-methylphenyl)-1-(2-tricyclo[3.3.1.1^3.7]decyl)methan-1-ol hydrochloride]	> 3	>3.00 (+)	–	–	–
COc1cccc(C(O)(C2C3CC4CC(C3)CC2C4)C23CCCN2CCC3)c1 (centres unmarked) [Prep. Ex. 19, 1-(1-azabicyclo[3.3.0]octan-5-yl)-1-(3-methoxyphenyl)-1-(2-tricyclo[3.3.1.1³^.7]decyl)methan-1-ol hydrochloride]	0	–	0	0.17	log reduction at 20 µg/mL (HSV-1 (Miyama strain); [8]): > 2; log reduction at 20 µg/mL [2]: > 3.17
OC(c1cccc(C(F)(F)F)c1)(C1C2CC3CC(C2)CC1C3)C12CCCN1CCC2 (centres unmarked) [Prep. Ex. 21, 1-(1-azabicyclo[3.3.0]octan-5-yl)-1-(3-trifluoromethylphenyl)-1-(2-tricyclo[3.3.1.1^3.7]decyl)methan-1-ol hydrochloride]	0.33	–	0	0.27	log reduction at 5 µg/mL (HSV-1 (Miyama strain); [4]): 0.5
CC1(c2ccc(C(O)(C3C4CC5CC(C4)CC3C5)C34CCCN3CCC4)cc2)OCCS1 (centres unmarked) [Prep. Ex. 30, 1-(1-azabicyclo[3.3.0]octan-5-yl)-1-(4-(2-methyl-1,3-thioxolane-2-yl)phenyl)-1-(2-tricyclo[3.3.1.1^3.7]decyl)methan-1-ol]	> 3.17	>3.17 (+)	> 3	> 3	cytotoxicity (MDCK cells): >3.00 (+)
OC(c1ccc(C(F)(F)F)cc1)(C1C2CC3CC(C2)CC1C3)C12CCCN1CCC2 (centres unmarked) [Prep. Ex. 17, 1-(1-azabicyclo[3.3.0]octan-5-yl)-1-(4-trifluoromethylphenyl)-1-(2-tricyclo[3.3.1.1³^.7]decyl)methan-1-ol hydrochloride]	0.33	0.33 (-)	0.33	0.33	log reduction at 20 µg/mL (HSV-1 (Miyama strain); [8]): 0.33; log reduction at 20 µg/mL [2]: 0.33
NC12CC3CC(CC(C3)C1)C2 [Amantadine]	–	–	–	–	efficacy against influenza B virus (influenza B virus): not against influenza B virus; efficacy against influenza A virus (influenza A virus): efficacious against influenza A virus
OC(c1ccc(-c2ccccc2)cc1)(C1C2CC3CC(C2)CC1C3)C12CCCN1CCC2 (centres unmarked) [Prep. Ex. 29, 1-(1-azabicyclo[3.3.0]octan-5-yl)-1-(4-biphenyl)-1-(2-tricyclo[3.3.1.1^3.7]decyl)methan-1-ol hydrochloride]	> 3.17	>3.17 (+)	> 3	> 3	cytotoxicity (MDCK cells): >3.00 (+)
OC(c1ccccc1)(C1C2CC3C(C2)C31)C12CCCN1CCC2 (stereo not drawn) [Prep. Ex. 3, (1R*)-1-(1-azabicyclo[3.3.0]octan-5-yl)1-phenyl-1-[(3'S*)-3-tricyclo[2.2.1.0]heptyl]methan-1-ol hydrochloride]	–	–	–	–	Antiviral Activity (ΔTCID₅₀)(log₁₀) (HSV-1 (Miyama strain); [6]): 0.00 (-) log₁₀; Antiviral Activity (ΔTCID₅₀)(log₁₀) (HSV-1 (Miyama strain); [7]): >3.00 (-) log₁₀
OC(c1ccccc1)(C1C2CC3CC(C2)CC1C3)C12CCCN1CCC2 (centres unmarked) [Prep. Ex. 8, 1-(1-azabicyclo[3.3.0]octan-5-yl)-1-phenyl-1-(2-tricyclo[3.3. 1.1^3.7]decyl)methan-1-ol]	–	–	–	0.67	log reduction at 5 µg/mL (HSV-1 (Miyama strain); [9]): 0.5; log reduction at 10 µg/mL (HSV-1 (Miyama strain); [9]): 0.66; log reduction at 20 µg/mL (HSV-1 (Miyama strain); [9]): 2.66; log reduction at 20 µg/mL [2]: > 3.5
OC(c1ccc(F)cc1)(C1C2CC3CC(C2)CC1C3)C12CCCN1CCC2 (centres unmarked) [Prep. Ex. 10, 1-(1-azabicyclo[3.3.0]octan-5-yl)-1-(4-fluoropheyl)-1-(2-tricyclo [3.3.1.1^3.7]decyl)methan-1-ol]	1.17	–	2	> 3.17	Antiviral Activity (ΔTCID₅₀)(log₁₀) (HSV-1 (Miyama strain); compound concentration 5 µg/ml, GMK cells): 0.83 (-) log₁₀
(1R*)-1-phenyl-3-piperidino-1-((3'R*)-3-tricyclo[2.2.1.0] heptyl)propan-1-ol hydrochloride [Prep. Ex. 2]	–	–	–	–	Antiviral Activity (ΔTCID₅₀)(log₁₀) (HSV-1 (Miyama strain); [6]): 0.17 (-) log₁₀; Antiviral Activity (ΔTCID₅₀)(log₁₀) (HSV-1 (Miyama strain); [7]): >3.00 (+) log₁₀
CC(C(O)(c1ccccc1)C1C2CC3C(C2)C31)C12CCCN1CCC2 (centres unmarked) [Prep. Ex. 6, 2-(1-azabicyclo[3.3.0]octan-5-yl)-1-phenyl-1-(3-tricyclo [2.2.1.0]heptyl)propan-1-ol]	–	–	–	–	Antiviral Activity (ΔTCID₅₀)(log₁₀) (HSV-1 (Miyama strain); [6]): 1.00 (±) log₁₀
COc1ccc(C(O)(C2C3CC4CC(C3)CC2C4)C23CCCN2CCC3)cc1 (centres unmarked) [Prep. Ex. 15, 1-(1-azabicyclo[3.3.0]octan-5-yl)-1-(4-methoxyphenyl)-1-(2-tricyclo[3.3.1.1^3.7]decyl)methan-1-ol hydrochloride]	0.67	0.67 (-)	0	> 2.17	log reduction at 20 µg/mL [2]: > 3.5
OC(CCN1CCCCC1)(c1ccccc1)C1C2CC3C(C2)C31 (centres unmarked) [Norakin]	–	–	–	–	anti influenza virus action (influenza virus [3]): confirmed to have an anti influenza virus action; anti-viral activity against herpes virus (herpes virus): lack in anti-viral activity against herpes virus
OC(CCN1CCCCC1)(c1ccccc1)C1CC2C=CC1C2 (centres unmarked) [Akineton]	–	–	–	–	anti influenza virus action (influenza virus [3]): confirmed to have an anti influenza virus action
